The values below come from PubChem BioAssay AID328 (DTP/NCI, 2004).

For test [1], the system named is BDF1 mice, P388 leukemia ip. Nature of the test: NCI In Vivo Anticancer Drug Screen. Data for tumor model P388 Leukemia (intraperitoneal) in B6D2F1 (BDF1) mice. The following applies: endpoint: mean survival time, schedule: Q01DX010 (ip), vehicle: saline, higher = longer survival. The essentials:
(§1)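 Survival ratio, drug arm over vehicle arm, in mice with a transplanted tumour.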

In test [2] the test system is BDF1 mice, P388 leukemia ip, median survival T/C. Described as above. The following applies: endpoint: median survival time, higher = longer survival. The essentials:
as §1

Inconclusive results and toxic doses are left out.

As to `CCC1(O)CC(OC2CC(N(C)C)C(OC3CC4OC5CC(=O)C(C)OC5OC4C(C)O3)C(C)O2)c2c(cc3c(c2O)C(=O)c2c(O)ccc(O)c2C3=O)C1C(=O)OC` (stereo not drawn), the T/C in test [1] (dose: 0.09 mg/kg/injection) was 111 % of control; in test [1] (dose: 0.38 mg/kg/injection), 95 % of control; in test [1] (dose: 1.5 mg/kg/injection) it was 87 % of control; in test [2] (dose: 0.75 mg/kg/injection, schedule: Q01DX001 (ip), vehicle: saline), 104 % of control; in test [2] (dose: 0.86 mg/kg/injection, schedule: Q04DX003 (ip), vehicle: water) it was 121 % of control; in test [2] (dose: 1.25 mg/kg/injection, schedule: Q01DX001 (ip), vehicle: saline), 114 % of control. Besides, the T/C was 157 % of control in test [2] (dose: 1.3 mg/kg/injection, schedule: Q04DX003 (ip), vehicle: water); 109 % of control in test [2] (dose: 1.5 mg/kg/injection, schedule: Q01DX001 (ip), vehicle: saline); 155 % of control in test [2] (dose: 1.73 mg/kg/injection, schedule: Q04DX003 (ip), vehicle: water); 191 % of control in test [2] (dose: 2.16 mg/kg/injection, schedule: Q04DX003 (ip), vehicle: water); 165 % of control in test [2] (dose: 2.4 mg/kg/injection, schedule: Q04DX003 (ip), vehicle: water); 166 % of control in test [2] (dose: 5.0 mg/kg/injection, schedule: Q01DX001 (ip), vehicle: saline). Also, in test [2] (dose: 10.0 mg/kg/injection, schedule: Q01DX001 (ip), vehicle: saline), the T/C is 195 % of control.
